Data reported in patent US20250136634A1, “CAP ANALOG AND USE THEREOF” (SHANGHAI HONGENE BIOTECH CORPORATION, priority 2021, published 2025).

Molecular target: T1, RIG-I (Homo sapiens, UniProt O95786)
T1 construct: endogenous in cells; host or cells: Hela cells (ATCC CCL-2)
T1 sequence (O95786 1-925): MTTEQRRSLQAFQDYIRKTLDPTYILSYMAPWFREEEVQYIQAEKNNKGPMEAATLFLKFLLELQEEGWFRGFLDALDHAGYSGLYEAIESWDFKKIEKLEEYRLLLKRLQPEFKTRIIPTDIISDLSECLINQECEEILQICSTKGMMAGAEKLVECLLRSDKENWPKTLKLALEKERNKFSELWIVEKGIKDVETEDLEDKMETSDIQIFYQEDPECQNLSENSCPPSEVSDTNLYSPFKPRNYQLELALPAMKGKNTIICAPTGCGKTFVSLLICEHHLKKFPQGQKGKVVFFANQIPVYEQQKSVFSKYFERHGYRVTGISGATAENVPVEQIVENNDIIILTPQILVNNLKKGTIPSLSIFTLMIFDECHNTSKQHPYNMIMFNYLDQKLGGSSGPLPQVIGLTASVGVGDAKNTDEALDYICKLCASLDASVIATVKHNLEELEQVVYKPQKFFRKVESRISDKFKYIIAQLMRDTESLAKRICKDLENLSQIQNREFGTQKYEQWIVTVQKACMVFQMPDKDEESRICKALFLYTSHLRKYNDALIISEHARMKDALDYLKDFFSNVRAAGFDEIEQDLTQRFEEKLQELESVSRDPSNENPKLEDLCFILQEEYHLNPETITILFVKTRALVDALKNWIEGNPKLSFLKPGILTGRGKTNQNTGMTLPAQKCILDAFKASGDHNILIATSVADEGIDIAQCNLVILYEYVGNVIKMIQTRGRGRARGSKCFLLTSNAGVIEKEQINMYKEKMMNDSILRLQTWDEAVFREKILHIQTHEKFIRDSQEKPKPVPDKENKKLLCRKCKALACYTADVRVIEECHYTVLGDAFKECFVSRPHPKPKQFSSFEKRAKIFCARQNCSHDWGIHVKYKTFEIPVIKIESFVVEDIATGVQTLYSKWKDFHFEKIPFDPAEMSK
Assay: Binding ability of mRNA to RIG-I, RNA co-immunoprecipitation and qPCR in Hela cells
Conditions: 2 ug mRNA/well, cells collected after 24 hours, relative to ^m7GpppApG cap, mean±SD
Experimental: In this example, Hela cells (ATCC CCL-2) were transfected with luciferase mRNAs (Gaussia luciferase) comprising various initial cap structures (the initial cap nucleotide structures comprised are: ^m7GpppApG, ^m7GpppA2′Ome pG, ^m7G3′OmepppA2′O-ethylpG, ^m7G2′OmepppA2′O-ethylpG, ^m7G3′Omeppp A2′O-MOEpG, ^m7G2′O-mepppA2′O-MOEpG, ^m7Gppp(N6-methyladenine)2′O-MOEpG, ^m7G2′OmepppC2′O-ethylpC, ^m7G3′OmepppA2′O-MOEpU), and collected after 24 hours. The intracellular proteins RIG-I and IFIT1 were co-precipitated with the RNAs to which they bound by RNA co-immunoprecipation. The mRNAs were subjected to reverse transcription and real-time quantitative PCR, and the relative abundance of the mRNAs is proportional to their RIG-I and IFIT1 binding ability.
(§1) Hela cells were seeded at a cell density of 4×10^5/well in 6-well plates, and transfected with mRNA at 2 ug mRNA/well when the cell density reached about 80% using Lipofectamine MessengerMAX Transfection Reagent (Invitrogen) according to the transfection steps in the instruction. The cells were collected after 24 hours, and incubated at RT for 10 minutes after the addition of fixative solution. The reaction was then terminated by adding glycine at a suitable concentration, and the cells were collected by centrifugation. Appropriate amount of lysis solution was added to the cells. The mixture was incubated on ice for 30 minutes and centrifuged to collect supernatant. Appropriate amount of (2-4 ng) anti-RIG-I and IFIT1 antibodies (Abcam) were added to the supernatant, and the mixture was incubated overnight at 4° C. on a shaker, and then 20 ul Protein A/G magnetic beads were added and incubated for 2 hours at 4° C. on a shaker. The beads were rinsed using magnetic grate for 5 minutes and repeated 3 times. After that, 1 mL TRIzol reagent was added to the magnetic beads to extract RNAs which were then reverse transcribed into cDNAs. The expression of related genes was detected using real-time quantitative fluorescent PCR with B-actin as the internal reference. The detection of each gene was repeated 3 times, and the result of the expression of each gene is expressed as the relative value to the result of ^m7GpppApG cap.
The intracellular proteins RIG-I and IFIT1 were co-precipitated with the RNAs to which they bound by RNA co-immunoprecipitation. The mRNAs were subjected to reverse transcription and real-time quantitative PCR, and the relative abundance of the mRNAs is proportional to their RIG-I and IFIT1 binding ability.
as §1, with “(Invitrogen) as the transfection reagent” for “(Invitrogen)”, “was” for “was then”

Row | Substance | Relative binding ability to RIG (Example 2) | Relative binding ability to RIG (Example 3 (IVT at 50° C.))
1 | ^m7G2′OmepppA2′O-MOEpG | 0.69 ± 0.01 | –
2 | ^m7G2′OmepppA2′O-ethylpG | 0.82 ± 0.03 | –
3 | ^m7G2′OmepppC2′O-ethylpC | 0.93 ± 0.08 | –
4 | ^m7G3′OmepppA2′O-MOEpG | 0.78 ± 0.07 | –
5 | ^m7G3′OmepppA2′O-MOEpU | 1.12 ± 0.01 | –
6 | ^m7G3′OmepppA2′O-ethylpG | 0.87 ± 0.11 | –
7 | ^m7GAlpha-L-LNApppA2′O-ethyl pG | – | 0.52 ± 0.01
8 | ^m7GBeta-D-LNApppA2′O-MOEpG | – | 0.48 ± 0.02
9 | ^m7Gppp(N6-methyladenine)2′O-MOEpG | 0.77 ± 0.14 | –
10 | ^m7GpppA2′Ome pG [reference compound] | 0.86 ± 0.06 | 0.88 ± 0.11
11 | ^m7GpppApG [reference compound] | 1 ± 0.23 | 1 ± 0.28
